Reference: patent US11135228B2, “Cysteinyl-proresolving mediators that promote resolution of infection and organ protection” (THE BRIGHAM AND WOMEN'S HOSPITAL, priority 2014, dated 2021)

Assays:
[1] = tested on: Planaria (Dugesia japonica); test: Planaria tissue regeneration after surgical injury (head resection), tissue regeneration index; assay type: in vivo; conditions: surgically injured planaria vs vehicle
Method: (§1) Planaria regeneration: Planaria (Dugesia japonica; Dj) were kept in water (Poland Spring) at 18° C. All animals were starved for at least 7 days prior to experiments. Tissue regeneration was assessed as in (12). Briefly, planaria were subject to head resection post-occularly (surgical Injury). The posterior portions of the planaria were then placed in spring water containing 0.01% EtOH, SPE-C isolate fraction 2 from resolving exudates or milk at the indicated dilutions, U0126 (Extracellular signal-regulated kinases (ERK) inhibitor; Cell Signaling Technology; 25 μM (16)), U0126 plus resolving exudates SPE-C isolates fraction 2, SCI (100 nM), SCII (100 nM), lipoxygenase inhibitor (baicalein, 10 μM) or lipoxygenase inhibitor plus SCI and SCII (100 nM). The extent of tissue regeneration during a 6-day period for D. japonica was determined using captured images of the regenerating blastemas at regular intervals (24 h). These images were analyzed using ImageJ software. A tissue regeneration index (TRI) was employed that took into consideration the size of the regenerated tissue total area (A) and the post-ocular width W of the animal, where TRI=A/W. In determined experiments, planaria were injured and incubated in water, containing 10^8CFU E. coli (serotype O6:K2:H1) or with E. coli plus SCI and SCII (100 nM), and tissue regeneration indices assessed as described above.
Planaria regeneration: Planaria (Dugesia japonica) were kept in water (Poland. Spring; Nestlé Waters North America, Stamford, Conn., USA) at 18° C. All animals were starved for at least 7 d before the experiments. Tissue regeneration was assessed as described previously (10). In brief, planaria were subjected to head resection postoccularly (surgical injury). The posterior portions of the planaria were then placed in spring water containing 0.01% EtOH, 16-glutathionyl, 17-hydroxyl-4Z,7Z,10,12,14,19Z-docosahexaenoic acid plus 16-cysteinylglycinyl, 7-hydroxyl-4Z,7Z,10,12,14,19Z-docosahexaenoic acid (50 nM; each) or 8-gutathionyl, 7,17-dihydroxyl-4Z9,11,13Z,15E,19Z-docosahexaenoic acid plus 8-cysteinylglycinyl, 7,17-dihydroxyl-4Z,9,11,13Z,15E,19Z-docosahexaenoic acid (50 nM, each). The extent of tissue regeneration during a 6-d period was determined using captured images of the regenerating blastemas at regular intervals (24 h). These images were analyzed using ImageJ software (NIH, Bethesda, Md., USA). A tissue regeneration index (TRI) was used that took into consideration the size of the regenerated tissue total area (A) and the postocular width (W), where TRI=A/W (10).

[2] = tested on: Mice (zymosan peritonitis); test: Zymosan peritonitis in mice: leukocyte counts and exudate eicosanoids; assay type: in vivo, mouse; conditions: i.p. prior to 1 mg zymosan; 4 h; MaR1 10 ng
Method: In determined experiments, mice were administered SC isolates from regenerating planaria i.p., obtained as described in the lipid mediator metabololipidomics and isolation of bioactive fractions section below, immediately prior to zymosan administration (i.p. 1 mg/mouse). After 4 h, peritoneal exudates were obtained, leukocytes enumerated as detailed above and eicosanoid levels assessed by lipid mediator metabololipidomics as described below.

LOX = test: SC levels in regenerating planaria with lipoxygenase inhibitor (LC-MS-MS); assay type: in vivo, Dugesia japonica; conditions: measured 3 days post-surgery
Method: as §1, with “The posterior portions of the planaria were then placed in spring water containing 0.01% EtOH, SPE-C isolate fraction 2 from resolving exudates or milk at the indicated dilutions, U0126 (Extracellular signal-regulated kinases (ERK) inhibitor; Cell Signaling Technology; 25 μM (16)), U0126 plus resolving exudates SPE-C isolates fraction 2, SCI (100 nM), SCII (100 nM), lipoxygenase inhibitor (baicalein, 10 μM) or lipoxygenase inhibitor plus SCI and SCII (100 nM).” left out
Lipid mediator metabololipidomics and isolation of bioactive fractions: Peritoneal exudates and exudate cell incubations were immediately placed in 2 volumes of methanol. For lipid mediator profiling, 500 pg each of deuterium-labeled internal standards: d8-5S-HETE, d4-LTB4, d5-LXA4, d4-PGE2, and d5-LTC4 were added to facilitate quantification in each respective chromatographic region and sample recovery. […]

Structure (SMILES) | tissue regeneration / head regrowth (in words) [1] | exudate eicosanoid levels including LTB4 and thromboxane (Tx) B2 [2] | neutrophil recruitment in murine peritonitis [2] | levels of both SCI and SCII (LOX)
CC/C=C\C/C=C\C[C@H](O)\C=C/C=C/C=C/[C@H](O)C/C=C\CCC(=O)O [MaR1, 7R,14S-dihydroxy-docosa-4Z,8E,10E,12Z,16Z,19Z-hexaenoic acid] | accelerated this process to essentially the same extent | shared | shared | 
O=c1cc(-c2ccccc2)oc2cc(O)c(O)c(O)c12 [baicalein, reference compound] | significantly delayed head regrowth |  |  | reduced
